The compounds below were run against T1, MIF (Homo sapiens, UniProt P14174) (assay: MIF tautomerase assay using pHPP as substrate). Details: inhibition of the MIF enzyme in vitro; mean of multiple test results; read-out: Tautomerase Inhibition pIC50 (converted).
T1 sequence (P14174 2-115 limits assumed): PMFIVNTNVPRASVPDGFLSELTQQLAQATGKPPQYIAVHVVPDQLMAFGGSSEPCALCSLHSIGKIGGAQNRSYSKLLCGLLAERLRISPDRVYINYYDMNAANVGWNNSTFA
Assay type: biochemical
How it was run: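 Mean pIC50 derived from initial rates (absorbance progress-curve slopes) of MIF-catalyzed ketonic-to-enolic pHPP conversion, read as enol–borate complex. Reactions contained 1.5 mM substrate and 3 nM enzyme (final), 200 mM boric acid stock buffer, BSA and CHAPS, pH 6.0.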

IC50 [nM]	SMILES
10 to 97.7	CC(C(=O)O)n1cnc2c(-n3ncc4ccccc43)nc(N3CCN(c4ccc(O)cn4)CC3)nc21 (stereo not drawn) [Example 145, 2-(2-(4-(5-hydroxypyridin-2-yl)piperazin-1-yl)-6-(1H-indazol-1-yl)-9H-purin-9-yl)propanoic acid]
10 to 97.7	O=C(O)CCCCn1cnc2c(-n3ncc4ccccc43)nc(N3CCC(O)(c4ccc(O)cc4)CC3)nc21 [Example 217, 5-(2-(4-hydroxy-4-(4-hydroxyphenyl)piperidin-1-yl)-6-(1H-indazol-1-yl)-9H-purin-9-yl)pentanoic acid]
> 10000	OC1(c2cn[nH]c2)CN(c2ncc3ncn(-c4ccncc4)c3n2)C1 [Example 200, 3-(1H-pyrazol-4-yl)-1-(9-(pyridin-4-yl)-9H-purin-2-yl)azetidin-3-ol]
> 10000	NC(=O)c1ccc(N2CCN(c3nc(N)c4ncn(-c5ccncc5)c4n3)CC2)nc1 [Example 194, 6-(4-(6-amino-9-(pyridin-4-yl)-9H-purin-2-yl)piperazin-1-yl)nicotinamide]
> 10000	O=C(O)Cn1cnc2c(-n3ncc4ccccc43)nc(N3CCC(O)(c4ccccc4)C3)nc21 (stereo not drawn) [Example 161, 2-(2-(3-hydroxy-3-phenylpyrrolidin-1-yl)-6-(1H-indazol-1-yl)-9H-purin-9-yl)acetic acid]
100 to 977	CC(C(=O)O)n1cnc2c(-n3cc4ccccc4n3)nc(N3CCN(c4ccc(O)cc4)CC3)nc21 (stereo not drawn) [Example 126, 2-(2-(4-(4-hydroxyphenyl)piperazin-1-yl)-6-(2H-indazol-2-yl)-9H-purin-9-yl)propanoic acid]
1000 to 9770	O=C(O)Cn1cnc2c(-c3cccc4[nH]ncc34)nc(N3CCN(c4ccc(O)cc4)CC3)nc21 [Example 34, 2-(2-(4-(4-hydroxyphenyl)piperazin-1-yl)-6-(1H-indazol-4-yl)-9H-purin-9-yl)acetic acid]
100 to 977	CN(C)Cc1cccc2c1cnn2-c1nc(N2CCN(c3ccc(O)cc3)CC2)nc2c1ncn2CC(=O)O [Example 143, 2-(6-(4-((dimethylamino)methyl)-1H-indazol-1-yl)-2-(4-(4-hydroxyphenyl)piperazin-1-yl)-9H-purin-9-yl)acetic acid]
1000 to 9770	C[C@H]1CN(c2ccc(O)cc2)CCN1c1nc(-n2ncc3ccccc32)c2ncn(CC(=O)O)c2n1 [Example 15, (S)-2-(2-(4-(4-hydroxyphenyl)-2-methylpiperazin-1-yl)-6-(1H-indazol-1-yl)-9H-purin-9-yl)acetic acid]
1000 to 9770	Cc1cc(N2CCN(c3nc(-n4ncc5ccccc54)c4ncn(CCO)c4n3)CC2)ccc1O [Example 153, 4-(4-(9-(2-hydroxyethyl)-6-(1H-indazol-1-yl)-9H-purin-2-yl)piperazin-1-yl)-2-methylphenol]
10 to 97.7	CCC(C(=O)O)n1cnc2c(-n3ncc4ccccc43)nc(N3CCN(c4ccc(O)cc4)CC3)nc21 (stereo not drawn) [Example 127, 2-(2-(4-(4-hydroxyphenyl)piperazin-1-yl)-6-(1H-indazol-1-yl)-9H-purin-9-yl)butanoic acid]
100 to 977	O=C1Cc2ccccc2N1c1nc(N2CCN(c3ccc(O)cc3)CC2)nc2c1ncn2CCO [Example 2, 1-(9-(2-hydroxyethyl)-2-(4-(4-hydroxyphenyl)piperazin-1-yl)-9H-purin-6-yl)indolin-2-one]
> 10000	Nc1nc(N2CCN(c3ccc(C(=O)O)cn3)CC2)nc2c1ncn2-c1ccncc1 [Example 193, 6-(4-(6-amino-9-(pyridin-4-yl)-9H-purin-2-yl)piperazin-1-yl)nicotinic acid]
1000 to 9770	OCCCn1cnc2c(N3CCc4ccccc43)nc(N3CCN(c4ccc(O)cc4)CC3)nc21 [Example 7, 4-(4-(9-(3-hydroxypropyl)-6-(indolin-1-yl)-9H-purin-2-yl)piperazin-1-yl)phenol]
> 10000	O=C(O)Cn1cnc2c(-n3ncc4ccccc43)nc(N3CCN(c4ncc(O)cc4F)CC3)nc21 [Example 130, 2-(2-(4-(3-fluoro-5-hydroxypyridin-2-yl)piperazin-1-yl)-6-(1H-indazol-1-yl)-9H-purin-9-yl)acetic acid]
1000 to 9770	Cc1nc2ccccc2n1-c1nc(N2CCN(c3ccc(O)cc3)CC2)nc2c1ncn2CC(=O)O [Example 28, 2-(2-(4-(4-hydroxyphenyl)piperazin-1-yl)-6-(2-methyl-1H-benzo[d]imidazol-1-yl)-9H-purin-9-yl)acetic acid]
1000 to 9770	Oc1ccc(N2CCN(c3nc(N4CCCC4)c4ncn(-c5cccnc5)c4n3)CC2)cc1 [Example 92, 4-(4-(9-(pyridin-3-yl)-6-(pyrrolidin-1-yl)-9H-purin-2-yl)piperazin-1-yl)phenol]
100 to 977	CCCS(=O)(=O)NC(=O)Cn1cnc2c(-n3ncc4ccccc43)nc(N3CCN(c4ccc(O)cc4)CC3)nc21 [Example 56, 2-(2-(4-(4-hydroxyphenyl)piperazin-1-yl)-6-(1H-indazol-1-yl)-9H-purin-9-yl)-N-(propylsulfonyl)acetamide]
10 to 97.7	N#Cc1nn(-c2nc(N3CCN(c4ccc(O)cc4)CC3)nc3c2ncn3CC(=O)O)c2ccccc12 [Example 134, 2-(2-(4-(4-hy-droxyphenyl)piperazin-1-yl)-6-(3-cyano-1H-indazol-1-yl)-9H-purin-9-yl)acetic acid]
100 to 977	Oc1ccc(N2CCN(c3nc(-n4ncc5ccccc54)c4ncn(Cc5ccccn5)c4n3)CC2)cc1 [Example 116, 4-(4-(6-(1H-indazol-1-yl)-9-(pyridin-2-ylmethyl)-9H-purin-2-yl)piperazin-1-yl)phenol]
> 10000	OCCn1cnc2c(N[C@@H]3CCc4ccccc43)nc(N3CCN(c4ccc(O)cc4)CC3)nc21 [Example 6, (R)-4-(4-(6-((2,3-dihydro-1H-inden-1-yl)amino)-9-(2-hydroxyethyl)-9H-purin-2-yl)piperazin-1-yl)phenol]
1000 to 9770	COc1ccc(-n2cnc3c(N)nc(N4CCN(c5ccc(O)cc5)CC4)nc32)c(OC)n1 [Example 84, 4-(4-(6-amino-9-(2,6-dimethoxypyridin-3-yl)-9H-purin-2-yl)piperazin-1-yl)phenol]
> 10000	Nc1nc(N2CCN(c3ccc(O)cc3)CC2)nc2c1ncn2-c1ccc(Cl)cc1Cl [Example 69, 4-(4-(6-amino-9-(2,4-dichlorophenyl)-9H-purin-2-yl)piperazin-1-yl)phenol]
10 to 97.7	O=C(O)C1CCN(c2nc(N3CCN(c4ccc(O)cc4)CC3)nc3c2ncn3-c2ccncc2)C1 (stereo not drawn) [Example 164, 1-(2-(4-(4-hydroxyphenyl)piperazin-1-yl)-9-(pyridin-4-yl)-9H-purin-6-yl)pyrrolidine-3-carboxylic acid]
> 10000	O=C(O)C1CCN(c2nc(N3CCN(c4cccnc4)CC3)nc3c2ncn3-c2ccncc2)C1 (stereo not drawn) [Example 181, 1-(2-(4-(pyridin-3-yl)piperazin-1-yl)-9-(pyridin-4-yl)-9H-purin-6-yl)pyrrolidine-3-carboxylic acid]
100 to 977	OC[C@@H](COCc1ccccc1)Nc1nc(N2CCN(c3ccc(O)cc3)CC2)nc2c1ncn2-c1ccncc1 [Example 176, (S)-4-(4-(6-((1-(benzyloxy)-3-hydroxypropan-2-yl)amino)-9-(pyridin-4-yl)-9H-purin-2-yl)piperazin-1-yl)phenol]
1000 to 9770	NC(=O)Cn1cnc2c(N3CCc4ccccc43)nc(N3CCN(c4ccc(O)cc4)CC3)nc21 [Example 32, 2-(2-(4-(4-hydroxyphenyl)piperazin-1-yl)-6-(indolin-1-yl)-9H-purin-9-yl)acetamide]

Reference: patent US20220144838A1, “Compounds as Inhibitors of Macrophage Migration Inhibitory Factor” (NANJING IMMUNOPHAGE BIOTECH CO., LTD., priority 2019, published 2022)
